The results in this text go back to patent US8569292B2, “Cyclic inhibitors of 11β-hydroxysteroid dehydrogenase 1” (Vitae Pharmaceuticals, Inc., priority 2008, dated 2013).

The target in experiment [1] is T1, CYP2C9 (Homo sapiens, UniProt P11712).
T1 construct: purchased Invitrogen 2859; host or cells: insect cells infected with baculovirus (microsomes)
The experiment in a line: Biological Test Example 9: CYP2C9 inhibition (Invitrogen kit, fluorogenic OOMR). Type of experiment: in vitro ADME.

The target of experiment [2] is T2, 11β-HSD1 (Homo sapiens, UniProt P28845). The experiment in a line: biochemical. The note with it: for inhibition at 0.1 µM: read-out: Average % inhibition at 100 nM.
In experiment [3] the target is T2, 11β-HSD1. In words: Biological Test Example 4: microsomal 11β-HSD1 in the presence of 50% human plasma. The note with it: for Shift: IC50 in Test Example 4 divided by IC50 in Test Example 1.
Setting [4] is: Biological Test Example 1 IC50 (nM).
The mark [5] stands for this setting: IC50 Range, Biological Test Example 1.

T2 sequence (P28845 whole entry): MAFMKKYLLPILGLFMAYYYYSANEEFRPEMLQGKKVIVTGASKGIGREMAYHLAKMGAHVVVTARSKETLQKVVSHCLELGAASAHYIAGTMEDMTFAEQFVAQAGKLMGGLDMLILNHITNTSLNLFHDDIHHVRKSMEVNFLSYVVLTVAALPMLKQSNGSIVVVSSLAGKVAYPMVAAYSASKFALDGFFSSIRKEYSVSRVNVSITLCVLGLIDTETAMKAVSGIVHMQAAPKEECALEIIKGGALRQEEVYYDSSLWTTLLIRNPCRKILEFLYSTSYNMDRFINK
T1 sequence (P11712 whole entry): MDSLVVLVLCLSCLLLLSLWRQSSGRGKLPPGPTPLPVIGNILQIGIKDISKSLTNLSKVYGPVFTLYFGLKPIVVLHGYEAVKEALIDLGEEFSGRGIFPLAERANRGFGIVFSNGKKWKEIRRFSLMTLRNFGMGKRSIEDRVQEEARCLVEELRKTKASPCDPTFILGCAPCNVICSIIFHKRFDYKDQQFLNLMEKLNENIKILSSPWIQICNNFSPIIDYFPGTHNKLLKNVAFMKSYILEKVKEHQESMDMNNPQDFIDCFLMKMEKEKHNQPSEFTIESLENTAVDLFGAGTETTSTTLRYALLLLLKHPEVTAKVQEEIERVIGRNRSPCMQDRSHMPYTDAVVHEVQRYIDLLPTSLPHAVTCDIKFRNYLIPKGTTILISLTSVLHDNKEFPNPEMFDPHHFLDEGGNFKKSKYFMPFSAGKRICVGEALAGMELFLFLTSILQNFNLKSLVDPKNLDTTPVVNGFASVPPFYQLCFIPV

As to `Cc1nc(C)c(-c2ccc([C@H](C)N3CC[C@](CCCO)(c4ccc(F)cc4)OC3=O)cc2)s1` [EXAMPLE 83, (R)-3-((S)-1-(4-(2,4-dimethylthiazol-5-yl)phenyl)ethyl)-6-(4-fluorophenyl)-6-(3-hydroxypropyl)-1,3-oxazinan-2-one], the IC50 in experiment [1] is 3900 nM; in experiment [2] (setting [4]), 1 nM; in experiment [2] (setting [5]) it was below 100 nM; in experiment [3], 8.8 nM. The inhibition at 0.1 µM in experiment [2] is 94.7%. For the same molecule, in experiment [3], the Shift is 8.9.
Consider `Cc1cccc(-c2ccc([C@H](C)N3CC[C@](CCCO)(c4ccc(F)cc4)OC3=O)cc2)n1` [EXAMPLE 62, (R)-6-(4-fluorophenyl)-6-(3-hydroxypropyl)-3-((S)-1-(4-(6-methylpyridin-2-yl)phenyl)ethyl)-1,3-oxazinan-2-one], for which the IC50 is 10900 nM in experiment [1], 0.5 nM in experiment [2] (setting [4]), below 100 nM in experiment [2] (setting [5]) and 22.6 nM in experiment [3]. Also, the inhibition at 0.1 µM in experiment [2] turned out to be 97.9%. The Shift in experiment [3] is listed as 44.2.
With `Cc1ccc(-c2ccc([C@H](C)N3CC[C@](CCCO)(c4ccc(F)cc4)OC3=O)cc2)c(C)n1` [EXAMPLE 141, (R)-3-((S)-1-(4-(2,6-dimethylpyridin-3-yl)phenyl)ethyl)-6-(4-fluorophenyl)-6-(3-hydroxypropyl)-1,3-oxazinan-2-one], the half-maximal inhibitory concentration (IC50) is above 30000 nM in experiment [1], 1 nM in experiment [2] (setting [4]), below 100 nM in experiment [2] (setting [5]) and 6.6 nM in experiment [3]. Moreover, the inhibition at 0.1 µM in experiment [2] was 102%. In addition, in experiment [3], the Shift was 6.3.
With `C[C@@H](c1ccc(-c2ccc(C(C)(C)O)nn2)cc1)N1CC[C@](CC(C)(C)O)(c2ccccc2)OC1=O` [EXAMPLE 7, (S)-6-(2-hydroxy-2-methylpropyl)-3-((S)-1-(4-(6-(2-hydroxypropan-2-yl)pyridazin-3-yl)phenyl)ethyl)-6-phenyl-1,3-oxazinan-2-one], the 50% inhibitory concentration (IC50) was 5300 nM in experiment [1], 4.9 nM in experiment [2] (setting [4]), below 100 nM in experiment [2] (setting [5]) and 4.3 nM in experiment [3]. Further, the inhibition at 0.1 µM in experiment [2] worked out at 93.3%. Further, the Shift in experiment [3] is 0.9.
As to `C[C@@H](c1ccc(-c2ccnc(N)c2)cc1)N1CC[C@](CCCO)(c2ccccc2)OC1=O` [EXAMPLE 125, (R)-3-((S)-1-(4-(2-aminopyridin-4-yl)phenyl)ethyl)-6-(3-hydroxypropyl)-6-phenyl-1,3-oxazinan-2-one], the IC50 in experiment [1] is 4300 nM; in experiment [2] (setting [4]), 0.6 nM; in experiment [2] (setting [5]) it was below 100 nM; in experiment [3] it was 6.8 nM. Moreover, the inhibition at 0.1 µM in experiment [2] turned out to be 98.6%. The Shift in experiment [3] is on record as 12.3.
Turning to `COc1ccc(-c2ccc([C@H](C)N3CC[C@](CCCNS(C)(=O)=O)(c4ccc(F)cc4)OC3=O)cc2)cn1` [EXAMPLE 67, N-(3-((R)-6-(4-fluorophenyl)-3-((S)-1-(4-(6-methoxypyridin-3-yl)phenyl)ethyl)-2-oxo-1,3-oxazinan-6-yl)propyl)methanesulfonamide], the IC50 in experiment [1] was 3800 nM; in experiment [2] (setting [4]) it was 0.7 nM; in experiment [2] (setting [5]), below 100 nM; in experiment [3] it was 6.7 nM. Further, the inhibition at 0.1 µM in experiment [2] stood at 101%. Besides, the Shift in experiment [3] was 9.9.
Consider `C[C@@H](c1ccc(-c2ncccn2)cc1)N1CC[C@](CCCO)(c2ccc(F)cc2)OC1=O` [EXAMPLE 113, (R)-6-(4-fluorophenyl)-6-(3-hydroxypropyl)-3-((S)-1-(4-(pyrimidin-2-yl)phenyl)ethyl)-1,3-oxazinan-2-one], for which the IC50 in experiment [1] was 2900 nM; in experiment [2] (setting [4]), 7.4 nM; in experiment [2] (setting [5]), below 100 nM; in experiment [3] it was 22.8 nM. Also, the inhibition at 0.1 µM in experiment [2] was 92.4%. In addition, the Shift in experiment [3] is listed as 3.1.
`Cc1cc(-c2ccc([C@H](C)N3CC[C@](CC(C)(C)C#N)(c4ccc(F)cc4)OC3=O)cc2)ccn1` [EXAMPLE 116, 3-((R)-6-(4-fluorophenyl)-3-((S)-1-(4-(2-methylpyridin-4-yl)phenyl)ethyl)-2-oxo-1,3-oxazinan-6-yl)-2,2-dimethylpropanenitrile]: the IC50 in experiment [1] was 5300 nM; in experiment [2] (setting [4]), 0.7 nM; in experiment [2] (setting [5]), below 100 nM; in experiment [3] it was 3.7 nM. In addition, the inhibition at 0.1 µM in experiment [2] was found to be 99.6%. Further, the Shift in experiment [3] is 5.1.
As to `C[C@@H](c1ccc(-c2ccccn2)cc1)N1CC[C@](CC(C)(C)O)(c2ccc(F)cc2)OC1=O` [EXAMPLE 58, (S)-6-(4-fluorophenyl)-6-(2-hydroxy-2-methylpropyl)-3-((S)-1-(4-(pyridin-2-yl)phenyl)ethyl)-1,3-oxazinan-2-one], the concentration for half-maximal inhibition (IC50) in experiment [1] was 16900 nM; in experiment [2] (setting [4]), 0.8 nM; in experiment [2] (setting [5]) it was below 100 nM; in experiment [3], 7.2 nM. Besides, the inhibition at 0.1 µM in experiment [2] amounted to 97.4%.
Regarding `C[C@@H](c1ccc(-c2cnc(-n3ccnc3)nc2)cc1)N1CC[C@](CC(C)(C)O)(c2ccccc2)OC1=O` [EXAMPLE 14, (S)-3-((S)-1-(4-(2-(1H-imidazol-1-yl)pyrimidin-5-yl)phenyl)ethyl)-6-(2-hydroxy-2-methylpropyl)-6-phenyl-1,3-oxazinan-2-one], the IC50 in experiment [1] is 20100 nM; in experiment [2] (setting [4]), 0.9 nM; in experiment [2] (setting [5]), below 100 nM; in experiment [3] it was 4.5 nM. For the same molecule, in experiment [2], the inhibition at 0.1 µM was 93.4%. Moreover, the Shift in experiment [3] was 5.0.
As to `COc1ccc(-c2ccc([C@H](C)N3CC[C@](CCCNS(C)(=O)=O)(c4ccccc4)OC3=O)cc2)cn1` [EXAMPLE 94, N-(3-((R)-3-((S)-1-(4-(6-methoxypyridin-3-yl)phenyl)ethyl)-2-oxo-6-phenyl-1,3-oxazinan-6-yl)propyl)methanesulfonamide], the IC50 in experiment [1] is 4500 nM; in experiment [2] (setting [4]), 0.5 nM; in experiment [2] (setting [5]), below 100 nM; in experiment [3], 5 nM. Besides, in experiment [2], the inhibition at 0.1 µM was found to be 98.7%. Moreover, the Shift in experiment [3] came out at 11.0.
Consider `C[C@@H](c1ccc(-c2ccccn2)cc1)N1CC[C@](CCCNS(C)(=O)=O)(c2ccccc2)OC1=O` [EXAMPLE 89, N-(3-((R)-2-oxo-6-phenyl-3-((S)-1-(4-(pyridin-2-yl)phenyl)ethyl)-1,3-oxazinan-6-yl)propyl)methanesulfonamide], for which the IC50 in experiment [1] is 13300 nM; in experiment [2] (setting [4]), 0.6 nM; in experiment [2] (setting [5]), below 100 nM; in experiment [3] it was 6.2 nM. The inhibition at 0.1 µM in experiment [2] was determined as 98.9%. The Shift in experiment [3] is 10.5.
Regarding `C[C@@H](c1ccc(-c2cccnc2)cc1)N1CC[C@](CCO)(c2ccc(F)cc2)OC1=O` [EXAMPLE 37, (S)-6-(4-fluorophenyl)-6-(2-hydroxyethyl)-3-((S)-1-(4-(pyridin-3-yl)phenyl)ethyl)-1,3-oxazinan-2-one], the IC50 in experiment [1] is 8500 nM; in experiment [2] (setting [4]), 2.5 nM; in experiment [2] (setting [5]) it was below 100 nM; in experiment [3], 6.1 nM. For the same molecule, in experiment [2], the inhibition at 0.1 µM stood at 94.3%. Also, in experiment [3], the Shift is listed as 2.5.
`C=CC[C@]1(c2ccc(F)cc2)CCN([C@@H](C)c2ccc(-c3cncc(F)c3)cc2)C(=O)O1` [EXAMPLE 51, (R)-6-allyl-6-(4-fluorophenyl)-3-((S)-1-(4-(5-fluoropyridin-3-yl)phenyl)ethyl)-1,3-oxazinan-2-one]: the IC50 is 700 nM in experiment [1], 1.5 nM in experiment [2] (setting [4]), below 100 nM in experiment [2] (setting [5]) and 60.7 nM in experiment [3]. In addition, the inhibition at 0.1 µM in experiment [2] was 96.1%. Besides, the Shift in experiment [3] was 40.6.
`C[C@@H](c1ccc(-c2ccncn2)cc1)N1CC[C@](CCCO)(c2ccc(F)cc2)OC1=O` [EXAMPLE 128, (R)-6-(4-fluorophenyl)-6-(3-hydroxypropyl)-3-((S)-1-(4-(pyrimidin-4-yl)phenyl)ethyl)-1,3-oxazinan-2-one]: the half-maximal inhibitory concentration (IC50) in experiment [1] is 3300 nM; in experiment [2] (setting [4]) it was 1.1 nM; in experiment [2] (setting [5]), below 100 nM; in experiment [3], 8.5 nM. The inhibition at 0.1 µM in experiment [2] turned out to be 96.5%.
`Cc1cc(-c2ccc([C@H](C)N3CC[C@](CC(C)(C)O)(c4ccccc4)OC3=O)cc2)cc(C)[n+]1[O-]` [EXAMPLE 121, 4-(4-((S)-1-((S)-6-(2-hydroxy-2-methylpropyl)-2-oxo-6-phenyl-1,3-oxazinan-3-yl)ethyl)phenyl)-2,6-dimethylpyridine 1-oxide]: the IC50 was 4800 nM in experiment [1], 2.3 nM in experiment [2] (setting [4]), below 100 nM in experiment [2] (setting [5]) and 7.5 nM in experiment [3]. Besides, the inhibition at 0.1 µM in experiment [2] turned out to be 97.3%.
In the case of `Cc1cc(-c2ccc([C@H](C)N3CC[C@](CCN4CCCS4(=O)=O)(c4ccccc4)OC3=O)cc2)ccn1` [EXAMPLE 105, (S)-6-(2-(1,1-dioxo-isothiazolidin-2-yl)ethyl)-3-((S)-1-(4-(2-methylpyridin-4-yl)phenyl)ethyl)-6-phenyl-1,3-oxazinan-2-one], the IC50 in experiment [1] was 2500 nM; in experiment [2] (setting [4]) it was 19.2 nM; in experiment [2] (setting [5]), below 100 nM. Also, the inhibition at 0.1 µM in experiment [2] is 86.3%.
`C[C@@H](c1ccc(-c2ccc(F)cn2)cc1)N1CC[C@](CCCO)(c2ccccc2)OC1=O` [EXAMPLE 112, (R)-3-((S)-1-(4-(5-fluoropyridin-2-yl)phenyl)ethyl)-6-(3-hydroxpropyl)-6-Phenyl-1,3-oxazinan-2-one]: the concentration for half-maximal inhibition (IC50) was 6100 nM in experiment [1], 0.5 nM in experiment [2] (setting [4]) and below 100 nM in experiment [2] (setting [5]). Also, the inhibition at 0.1 µM in experiment [2] amounted to 95.2%.
In experiment [1], `C[C@@H](c1ccc(-c2cccnc2)cc1)N1CC[C@](CCNS(C)(=O)=O)(c2ccccc2)OC1=O` [EXAMPLE 55, N-(2-((S)-2-oxo-6-phenyl-3-((S)-1-(4-(pyridin-3-yl)phenyl)ethyl)-1,3-oxazinan-6-yl)ethyl)methanesulfonamide] had an IC50 of 14100 nM. For the same molecule, the inhibition at 0.1 µM in experiment [2] was 96.5%.

One may read the IC50 as the concentration that gives 50% inhibition. Usually inhibition stands for the change of the read-out against control, counted positive when it falls.
